Molecular target: T1, human ferroportin (Homo sapiens, UniProt Q9NP59)
T1 construct: luciferase reporter (probably NanoLuc: read with the Nano-Glo Luciferase Assay System); expressed in transfected cells; host or cells: CHO cells, stably transfected, doxycycline-inducible expression
T1 sequence (Q9NP59 1-571): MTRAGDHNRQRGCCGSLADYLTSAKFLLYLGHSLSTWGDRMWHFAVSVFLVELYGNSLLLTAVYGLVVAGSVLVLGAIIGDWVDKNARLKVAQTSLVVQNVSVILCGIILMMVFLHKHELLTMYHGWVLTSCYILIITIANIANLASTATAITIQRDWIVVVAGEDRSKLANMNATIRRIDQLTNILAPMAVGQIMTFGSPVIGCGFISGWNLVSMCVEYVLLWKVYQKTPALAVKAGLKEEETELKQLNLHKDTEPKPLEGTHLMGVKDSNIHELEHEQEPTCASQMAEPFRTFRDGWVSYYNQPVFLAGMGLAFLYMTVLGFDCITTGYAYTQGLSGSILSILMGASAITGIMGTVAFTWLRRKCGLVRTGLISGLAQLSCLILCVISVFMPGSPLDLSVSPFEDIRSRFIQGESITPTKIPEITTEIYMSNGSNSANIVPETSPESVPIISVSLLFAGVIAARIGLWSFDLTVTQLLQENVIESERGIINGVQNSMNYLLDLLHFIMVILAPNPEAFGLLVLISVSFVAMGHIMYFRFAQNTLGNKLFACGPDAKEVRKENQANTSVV
Assay: In-vitro ferroportin internalization assay (luciferase reporter)
Type: cell-based
Conditions: average pEC50; stably-transfected CHO cell line expressing human ferroportin tagged to a luciferase reporter; 6 h incubation with test compounds
Protocol: The protocol for this assay is generally as described in WO2018/128828, incorporated herein by reference in its entirety. Functional internalization of ferroportin protein was measured using a stably-transfected CHO cell line expressing the human ferroportin tagged to a luciferase reporter. Cells were plated for 24 h in the presence of ferric ammonium citrate (FAC). Ferroportin protein expression was induced with doxycycline for 24 h. The next day, the compounds were added. Test compounds were dissolved in DMSO. Cells were incubated with the test compounds for 6 h, and subsequently luciferase activity was measured using the Nano-Glo Luciferase Assay System and Glomax (Promega, Madison, Wis.).
The average pEC50 was determined for the test compounds.

Row | SMILES | pEC50
1 | CC(CNCCc1nc2ccccc2[nH]1)c1nc2c(NCc3ncccc3F)ncnc2s1 (centres unmarked) [Compound 24, 2-(1-{[2-(1H-1,3-benzodiazol-2-yl)ethyl]amino}propan-2-yl)-N-[(3-fluoropyridin-2-yl)methyl]-[1,3]thiazolo[5,4-d]pyrimidin-7-amine] | 5.8
2 | Fc1cccnc1CNc1ncnc2sc(C3(F)CN(CCc4nc5ccccc5[nH]4)C3)nc12 [Compound 25, 2-{1-[2-(1H-1,3-benzodiazol-2-yl)ethyl]-3-fluoroazetidin-3-yl}-N-[(3-fluoropyridin-2-yl)methyl]-[1,3]thiazolo[5,4-d]pyrimidin-7-amine] | 6.3
3 | C[C@H](Cc1nc2c(NCc3ncccc3F)ncnc2s1)NCCc1nc2ccccc2[nH]1 [Compound 26, 2-[(2R)-2-{[2-(1H-1,3-benzodiazol-2-yl)ethyl]amino}propyl]-N-[(3-fluoropyridin-2-yl)methyl]-[1,3]thiazolo[5,4-d]pyrimidin-7-amine] | 6.5
4 | C[C@@H](Cc1nc2c(NCc3ncccc3F)ncnc2s1)NCCc1nc2ccccc2[nH]1 [Compound 28, 2-[(2S)-2-{[2-(1H-1,3-benzodiazol-2-yl)ethyl]amino}propyl]-N-[(3-fluoropyridin-2-yl)methyl]-[1,3]thiazolo[5,4-d]pyrimidin-7-amine] | 6.3
5 | Fc1cccnc1CNc1ncnc2sc(C(F)CNCCc3nc4ccccc4[nH]3)nc12 (centres unmarked) [Compound 30, 2-(2-{[2-(1H-1,3-benzodiazol-2-yl)ethyl]amino}-1-fluoroethyl)-N-[(3-fluoropyridin-2-yl)methyl]-[1,3]thiazolo[5,4-d]pyrimidin-7-amine] | 7.3
6 | O=c1c2ccccc2[nH]n1CCNCCc1nc2c(NCc3ncccc3F)ncnc2s1 [Compound 34, 2-(2-{[2-(7-{[(3-fluoropyridin-2-yl)methyl]amino}-[1,3]thiazolo[5,4-d]pyrimidin-2-yl)ethyl]amino}ethyl)-2,3-dihydro-1H-indazol-3-one] | 5.1
7 | Fc1cccnc1CNc1ncnc2sc(CCNCCc3ncc(-c4ccccc4)[nH]3)nc12 [Compound 35, N-[(3-fluoropyridin-2-yl)methyl]-2-(2-{[2-(5-phenyl-1H-imidazol-2-yl)ethyl]amino}ethyl)-[1,3]thiazolo[5,4-d]pyrimidin-7-amine] | 7.1
8 | Oc1nc(NCc2ncccc2F)c2nc(CCNCCc3nc4ccccc4[nH]3)oc2n1 [Compound 36, 2-(2-{[2-(1H-1,3-benzodiazol-2-yl)ethyl]amino}ethyl)-7-{[(3-fluoropyridin-2-yl)methyl]amino}-[1,3]oxazolo[5,4-d]pyrimidin-5-ol] | 6.4
9 | CC(NCCc1nc2c(NCc3ncccc3F)ncnc2s1)c1ccccc1O (centres unmarked) [Compound 38, 2-(1-{[2-(7-{[(3-fluoropyridin-2-yl)methyl]amino}-[1,3]thiazolo[5,4-d]pyrimidin-2-yl)ethyl]amino}ethyl)phenol] | 4.9
10 | CC(CNCCc1nc2c(NCc3ncccc3F)ncnc2s1)c1nc2ccccc2[nH]1 (centres unmarked) [Compound 41, 2-(2-{[2-(1H-1,3-benzodiazol-2-yl)propyl]amino}ethyl)-N-[(3-fluoropyridin-2-yl)methyl]-[1,3]thiazolo[5,4-d]pyrimidin-7-amine] | 7.2
11 | Fc1cccnc1CNc1ncnc2sc(CCNCCc3ncc(Cc4ccccc4)[nH]3)nc12 [Compound 43, 2-(2-{[2-(5-benzyl-1H-imidazol-2-yl)ethyl]amino}ethyl)-N-[(3-fluoropyridin-2-yl)methyl]-[1,3]thiazolo[5,4-d]pyrimidin-7-amine] | 8.4
12 | Oc1ccccc1CCNCCc1nc2c(NCc3ncccc3F)ncnc2s1 [Compound 44, 2-(2-{[2-(7-{[(3-fluoropyridin-2-yl)methyl]amino}-[1,3]thiazolo[5,4-d]pyrimidin-2-yl)ethyl]amino}ethyl)phenol] | 4.9
13 | Fc1cccnc1CNc1ncnc2sc(CCNCC(F)c3nc4ccccc4[nH]3)nc12 (centres unmarked) [Compound 45, 2-(2-{[2-(1H-1,3-benzodiazol-2-yl)-2-fluoroethyl]amino}ethyl)-N-[(3-fluoropyridin-2-yl)methyl]-[1,3]thiazolo[5,4-d]pyrimidin-7-amine] | 6.4
14 | O=C(CCC1(CCc2cn(CCCNC(=O)c3ccc4c(c3)C3(OC4=O)c4ccc(O)cc4Oc4cc(O)ccc43)nn2)N=N1)Nc1ccc2[nH]c(CCNCCc3nc4c(NCc5ncccc5F)ncnc4s3)nc2c1 [Compound 47, N-[3-(4-{2-[3-(2-{[2-(2-{[2-(7-{[(3-fluoropyridin-2-yl)methyl]amino}-[1,3]thiazolo[5,4-d]pyrimidin-2-yl)ethyl]amino}ethyl)-1H-1,3-benzodiazol-5-yl]carbamoyl}ethyl)-3H-diazirin-3-yl]ethyl}-1H-1,2,3-triazol-1-yl)propyl]-3′,6′-dihydroxy-3-oxo-3H-spiro[2-benzofuran-1,9′-xanthene]-6-carboxamide] | 5.8
15 | Fc1cccnc1CNc1nccc2oc(CCNCCc3ncc(-c4ccccc4)[nH]3)nc12 [Compound 48, N-[(3-fluoropyridin-2-yl)methyl]-2-(2-{[2-(5-phenyl-1H-imidazol-2-yl)ethyl]amino}ethyl)-[1,3]oxazolo[4,5-c]pyridin-4-amine] | 7
16 | Fc1cccnc1CNc1ncnc2sc(CCNCc3nc(-c4ccccc4)c[nH]3)nc12 [Compound 49, N-[(3-fluoropyridin-2-yl)methyl]-2-(2-{[(4-phenyl-1H-imidazol-2-yl)methyl]amino}ethyl)-[1,3]thiazolo[5,4-d]pyrimidin-7-amine] | 6.9

Second part, the compound after the results:

Row | pEC50 | SMILES
17 | 6.2 | COC(=O)c1ccc2[nH]c(CCNCCc3nc4c(NCc5ncccc5F)ncnc4s3)nc2c1 [Compound 27, Methyl 2-(2-{[2-(7-{[(3-fluoropyridin-2-yl)methyl]amino}-[1,3]thiazolo[5,4-d]pyrimidin-2-yl)ethyl]amino}ethyl)-1H-1,3-benzodiazole-5-carboxylate]
18 | 5.2 | CC(=O)NOc1nc(NCc2ncccc2F)c2nc(CCNCCc3nc4ccccc4[nH]3)sc2n1 [Compound 29, N-{[2-(2-{[2-(1H-1,3-benzodiazol-2-yl)ethyl]amino}ethyl)-7-{[(3-fluoropyridin-2-yl)methyl]amino}-[1,3]thiazolo[5,4-d]pyrimidin-5-yl]oxy}acetamide]
19 | 5.6 | Cc1nc(NCc2ncccc2F)c2nc(CCNCCc3nc4ccccc4[nH]3)sc2n1 [Compound 31, 2-(2-{[2-(1H-1,3-benzodiazol-2-yl)ethyl]amino}ethyl)-N-[(3-fluoropyridin-2-yl)methyl]-5-methyl-[1,3]thiazolo[5,4-d]pyrimidin-7-amine]
20 | 6.9 | [N-]=[N+]=Nc1cccnc1CNc1ncnc2sc(CCNCCc3nc4cc(I)ccc4[nH]3)nc12 [Compound 32, N-[(3-azidopyridin-2-yl)methyl]-2-(2-{[2-(5-iodo-1H-1,3-benzodiazol-2-yl)ethyl]amino}ethyl)-[1,3]thiazolo[5,4-d]pyrimidin-7-amine]
21 | 6.2 | Fc1cccnc1CNc1ncnc2sc(CCNCCc3nc4ncccc4[nH]3)nc12 [Compound 33, N-[(3-fluoropyridin-2-yl)methyl]-2-{2-[(2-{1H-imidazo[4,5-b]pyridin-2-yl}ethyl)amino]ethyl}-[1,3]thiazolo[5,4-d]pyrimidin-7-amine]
22 | 5.6 | Fc1cccnc1CNc1ncnc2sc(CCNCCc3nc4cnccc4[nH]3)nc12 [Compound 37, N-[(3-fluoropyridin-2-yl)methyl]-2-{2-[(2-{1H-imidazo[4,5-c]pyridin-2-yl}ethyl)amino]ethyl}-[1,3]thiazolo[5,4-d]pyrimidin-7-amine]
23 | 6.9 | C#CCCC1(CCC(=O)NCc2ccc3[nH]c(CCNCCc4nc5c(NCc6ncccc6F)ncnc5s4)nc3c2)N=N1 [Compound 39, 3-[3-(but-3-yn-1-yl)-3H-diazirin-3-yl]-N-{[2-(2-{[2-(7-{[(3-fluoropyridin-2-yl)methyl]amino}-[1,3]thiazolo[5,4-d]pyrimidin-2-yl)ethyl]amino}ethyl)-1H-1,3-benzodiazol-5-yl]methyl}propanamide]
24 | 6.2 | CC(Cc1nc2ccccc2[nH]1)NCCc1nc2c(NCc3ncccc3F)ncnc2s1 (centres unmarked) [Compound 40, 2-(2-{[1-(1H-1,3-benzodiazol-2-yl)propan-2-yl]amino}ethyl)-N-[(3-fluoropyridin-2-yl)methyl]-[1,3]thiazolo[5,4-d]pyrimidin-7-amine]
25 | 7.3 | Fc1cccnc1CNc1ncnc2sc(CCNCCc3ncc[nH]3)nc12 [Compound 42, N-[(3-fluoropyridin-2-yl)methyl]-2-(2-{[2-(1H-imidazol-2-yl)ethyl]amino}ethyl)-[1,3]thiazolo[5,4-d]pyrimidin-7-amine]
26 | 7.1 | Cc1cc2nc(CCNCCc3nc4c(NCc5ncccc5F)ncnc4s3)[nH]c2cc1C [Compound 46, 2-(2-{[2-(5,6-dimethyl-1H-1,3-benzodiazol-2-yl)ethyl]amino}ethyl)-N-[(3-fluoropyridin-2-yl)methyl]-[1,3]thiazolo[5,4-d]pyrimidin-7-amine]

Reference: US11286243B2 (GLOBAL BLOOD THERAPEUTICS, INC., priority 2018, dated 2022)
